# Entries after “also recorded” stand apart in the source; their conditions may differ.
# Target: T1, TbPFK (Trypanosoma brucei brucei, UniProt O15648)
# T1 construct: made in house; host or cells: Escherichia coli C41 (pET28a, codon optimised gene)
# T1 sequence (O15648 1-487): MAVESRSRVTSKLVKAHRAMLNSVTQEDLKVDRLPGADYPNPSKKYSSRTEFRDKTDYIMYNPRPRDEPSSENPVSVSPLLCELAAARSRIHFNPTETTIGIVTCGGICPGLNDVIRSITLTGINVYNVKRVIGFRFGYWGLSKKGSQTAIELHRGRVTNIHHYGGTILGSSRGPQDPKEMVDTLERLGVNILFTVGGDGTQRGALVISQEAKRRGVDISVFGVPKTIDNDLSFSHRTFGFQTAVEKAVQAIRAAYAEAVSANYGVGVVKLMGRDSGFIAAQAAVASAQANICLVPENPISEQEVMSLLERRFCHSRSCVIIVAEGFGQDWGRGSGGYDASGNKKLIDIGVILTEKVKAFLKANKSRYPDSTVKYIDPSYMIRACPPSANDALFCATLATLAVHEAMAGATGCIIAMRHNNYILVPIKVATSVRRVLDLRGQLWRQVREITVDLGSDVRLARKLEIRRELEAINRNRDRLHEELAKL
# Assay: PYK/LDH linked enzyme assay to determine inhibitor mode of action
# Format: biochemical
# Experimental: TbPFK inhibition was studied using an enzyme assay, in which production of ADP by TbPFK was coupled to the reactions of pyruvate kinase and lactate dehydrogenase: the conversion of pyruvate to lactate and NADH to NAD^+, is monitored by reduction of UV absorbance at 340 nm.
# Parasite enzyme kinetic data were measured using N-terminally His6-tagged TbPFK expressed in Escherichia coli C41 cells, using a codon optimised gene inserted in a pET28a vector (Supplementary Methods 1). Recombinant human PFKs were expressed in PFK-deficient Saccharomyces cerevisiae. PFK enzyme inhibition was measured using an ADP-Glo^TM assay (Promega) in a 96-well plate format (Supplementary Methods 2.1), using a Spectramax© M5 Multimode Plate Reader to measure luminescence values which were converted to ADP concentrations. IC50 values were determined using a sigmoidal curve fitting algorithm in Kaleidagraph 4 (Supplementary Fig. 1). Mode of action studies were carried out using a linked enzyme assay coupling the forward reaction of TbPFK to the M1 isoform of human pyruvate kinase followed by lactate dehydrogenase. The change in UV absorbance at 340 nm resulting from the conversion of NADH to NAD^+ was measured at 25 °C in ‘kinetic mode’ on a Spectramax© M5 Multimode plate reader. […] An alternative linked enzyme assay was developed to control for the potential inhibitory activity of ATP on human PFK (Supplementary Methods 2.3).
# The mechanism of TbPFK inhibition was studied using a coupled enzyme assay in which production of ADP by TbPFK was coupled to the reaction of human M1 isoform pyruvate kinase (hPYK), which converts ADP and phosphoenolpyruvate (PEP) to ATP and pyruvate. The reaction is further coupled to lactate dehydrogenase (LDH), which converts pyruvate and NADH to lactate and NAD^+, respectively. NADH conversion was monitored by measuring changes in NADH absorbance.
# A 2.5x ‘assay mix’ was made containing 4.8 mM PEP, 1.2 mM NADH , 20 U/ml PYK, 33 U/ml LDH, 0 to 3mM ATP in assay buffer (10 mM MgCl2, 100 mM KCl, 50 mM TEA, 10% glycerol, 0.005% Tween-20, pH 7.4). For measuring activity 40 µl of assay mix was plated in a clear, non-binding 96 well plate (Greiner Bio-One cat. no. 655901) with 4-10 µl of the PFK sample (typically a 0.1 mg/ml stock) to be tested and 40 – 46 µl of assay buffer. The reaction was started upon addition of 10 µl of up to 6 mM F6P (0.6 mM final concentration). Absorbance at 340 nm was read at 20 second intervals for 10 minutes at 25 °C in ‘kinetic mode’ on a Spectramax© M5 Multimode plate reader. The gradient of the linear section of raw plots of NADH absorbance over time were used to obtain initial velocities.
smiles,measurement,setting,value
"CN(C)CCn1ccc2c(ccn2Cc2ccc(Cl)c(Cl)c2)c1=O [CTCB-405, 1-[(3,4-Dichlorophenyl)methyl]-5-[2-(dimethylamino)ethyl] pyrrolo[3,2-c]pyridin-4-one]",mode of inhibition with respect to ATP and F6P,,not competitive with either ATP or F6P; also recorded: not competitive with either substrate
same,"Vmax, Michaelis Menten best fit versus ATP",CTCB-405 at 0.5 x IC50,36.5 µmol/min/mg
same,"Vmax, Michaelis Menten best fit versus F6P",CTCB-405 at 0.5 x IC50,38.7 µmol/min/mg
same,"Vmax, Michaelis Menten best fit versus ATP",CTCB-405 at 1x IC50,33.8 µmol/min/mg
same,"Vmax, Michaelis Menten best fit versus F6P",CTCB-405 at 1x IC50,33.6 µmol/min/mg
same,"Vmax, Michaelis Menten best fit versus ATP",CTCB-405 at 2 x IC50,26.6 µmol/min/mg
same,"Vmax, Michaelis Menten best fit versus F6P",CTCB-405 at 2 x IC50,34.0 µmol/min/mg
